In US11058903B2, “Methods for identifying and treating cachexia or pre-cachexia using an inhibitor of rage” (THE BROAD INSTITUTE, INC., priority 2013, dated 2021):
Entries after “also recorded” stand apart in the source; their conditions may differ.

Columns and labels:
HSkM cells = assay: In-Cell Western of myosin heavy chain (MyoHC) content in muscle cells exposed to CI-CM; assay type: cell-based, human
Source text: FIG. 21 is a chart showing the quantification of myosin heavy chain (MyoHC) content determined by In-Cell Western analysis of in vitro HSkM cells treated with media conditioned by cachexia-inducing MkN1 and G361 cells and in vitro HSkM cells treated with media conditioned by non-cachexia-inducing 293 cells, either in the presence or absence of a MEK/ERK inhibitor PD184352 (PD184).
FIG. 22 is a chart showing the myosin heavy chain (MyoHC) content determined by In-Cell Western analysis of in vitro HSkM cells pre-treated (for 2 days) or not pre-treated with cachexia-inducing conditioned media (“CI-CM”), either in the presence or absence of an ERK1/2 inhibitor, SCH772984 (SCH2984).
FIGS. 23A and 23B are a series of charts showing the dose response of myosin heavy chain (MyoHC) content determined by In-Cell Western analysis of muscle cells treated with a RAGE Anti-Peptide (FIG. 23A) or an anti-RAGE mAb (FIG. 23B), either in the absence or presence of cachexia-inducing conditioned media (CI-CM).
FIG. 24 is a chart showing the dose response of myosin heavy chain (MyoHC) content determined by In-Cell Western analysis of muscle cells treated with a recombinant soluble RAGE, either in the presence of cachexia-inducing conditioned media (CI-CM) or non-cachexia-inducing conditioned media (NCI-CM). […]

pancreatic cancer cells = assay: CellTiter Glo cell number assay, chemotherapy with or without soluble RAGE; assay type: cell-based; details: treated for 5 days; Gemcitibine alone or with increasing doses of recombinant human soluble RAGE
human muscle cells = assay: Testing of secreted proteins/cytokines for induction of the L1000 cachexia signature in muscle cells; assay type: cell-based; details: in vitro systems described
Protocol: FIG. 32 are graphs showing cytokine abundance relative to cachexia in patient plasma and conditioned media. Human cytokines (300 on cytokine array) in muscle were tested. None of the expected “usual suspect” cytokines induced the cachectic phenotype or gene expression signature in human muscle cells. IL6, INHBA, IFNG, IL10, IL1, TNFa was assayed in patient plasma and conditioned media.
FIG. 33 is a graph showing testing of human cytokines for induction of cancer cachexia signature. For some the enrichment score was weak (e.g., 1.25).
A faithful read-out of the cachectic phenotype was also developed using a novel high-throughput, low-cost gene expression profiling method (L1000) (FIG. 5). L1000 involves the profiling of 1000 human transcripts from which the remainder of the transcriptome can be computationally inferred. This method, validated in over 1 million samples, allowed for profiling of small numbers of cells grown in 384-well plates.
Therefore, it is likely that the major cachexia-inducing factors were yet to be discovered.

MEK/ERK = assay: Western blot of phosphorylated MEK and ERK in muscle cells exposed to cachexia-inducing conditioned media (CI-CM); assay type: cell-based, human; details: FIG. 20; for CI-CM stimulated phosphorylation of ERK: human muscle cells stimulated by CI-CM; for MEK/ERK activation (pMEK, pERK) by cachexia stimuli in CI-CM: muscle cells exposed to CI-CM, relative to NCI-CM, Western blot
Source text: FIG. 20 is an image of a Western blot showing phosphorylated MEK (pMEK) and phosphorylated ERK (pERK) in muscle cells exposed to cachexia-inducing conditioned media (CI-CM), either in the absence or presence of the MEK/ERK inhibitors, PD184352 (PD184) and trametinib (Tram). Also shown are pMEK and pERK levels in muscle cells exposed to non-cachexia-inducing conditioned media (NCI-CM).
Inhibition of MEK by exposure to PD1 84352 or trametinib blocked CI-CM stimulated phosphorylation of ERK (FIG. 20).

[1] = system: differentiated primary adipocytes; assay: Lipid loss in adipocytes treated with CI-CM (bodipy/DAPI staining); assay type: cell-based, human; details: 5 days CI-CM, FIG. 42
Source text: FIG. 42 includes six panels showing adipocytes in cultured stained with bodipy to highlight lipids and DAPI to stain nuclei. Lipids are lost in cells treated for 5 days with cachexia (CXA) inducing conditioned media (CM). Lipid loss is inhibited by inhibiting RAGE signaling.
Lipid loss from differentiated primary adipocytes occurs within 5 days of contact with cachexia-inducing conditioned media (FIG. 42A). This loss is inhibited in adipocytes treated with Rage inhibitors, anti-RAGE monoclonal antibody AF1145 or Tramatenib. This phenotypic response is also seen in melanoma cells.
The effects of treatment with RAGE blocking antibodies and Tremetinib are shown (FIG. 42).

## O=C(Nc1ccc2[nH]nc(-c3ccncc3)c2c1)C1CCN(CC(=O)N2CCN(c3ccc(-c4ncccn4)cc3)CC2)C1 (stereo not drawn) [SCH772984]
HSkM cells; HSkM cells pre-treated (2 days) or not with CI-CM, dose response, FIG. 22
  reversal of cachectic induced loss of myosin heavy chain (MyoHC): can reverse the MyoHC loss at a certain dose, beyond which the benefit is lost; also recorded: (partially) reverse; also recorded: reduced in a dose-dependent manner

## Nc1ccn([C@@H]2O[C@H](CO)[C@@H](O)C2(F)F)c(=O)n1 [Gemcitibine]
Pancreatic cancer cells
  pancreatic cancer cell numbers (CellTiter Glo): reduction

## IL-6: secreted protein tested as candidate cachexia-inducing protein
Human muscle cells
  induction of the cachexia signature: none of them strongly induced the cachexia signature

## TNFα
Human muscle cells
  induction of the cachexia signature: none of them strongly induced the cachexia signature

## IFNγ: secreted protein tested as candidate cachexia-inducing protein
Human muscle cells
  induction of the cachexia signature: none of them strongly induced the cachexia signature

## Activin
Human muscle cells
  induction of the cachexia signature: none of them strongly induced the cachexia signature

## Myostatin: secreted protein tested as candidate cachexia-inducing protein
Human muscle cells
  induction of the cachexia signature: none of them strongly induced the cachexia signature

## CC(=O)Nc1cccc(-n2c(=O)n(C3CC3)c(=O)c3c(Nc4ccc(I)cc4F)n(C)c(=O)c(C)c32)c1 [trametinib, N-[3-[3-Cyclopropyl-5-[(2-fluoro-4-iodophenyl)amino]-3,4,6,7-tetrahydro-6,8-dimethyl-2,4,7-trioxopyrido[4,3-d]pyrimidin-1(2H)-yl]phenyl]acetamide]
MEK/ERK
  CI-CM stimulated phosphorylation of ERK: blocked
  MEK/ERK activation (pMEK, pERK) by cachexia stimuli in CI-CM: inhibited
[1]; listed as Tramatenib
  lipid loss from adipocytes caused by cachexia-inducing conditioned media: inhibited
[1]; listed as Tremetinib
  lipid loss from adipocytes caused by cachexia-inducing conditioned media: block the loss of lipid

## O=C(NOCC1CC1)c1ccc(F)c(F)c1Nc1ccc(I)cc1Cl [PD184352]
HSkM cells; HSkM cells with media conditioned by MkN1 and G361 cells, low-dose, dose curve, FIG. 21
  cachectic induced loss of myosin heavy chain (MyoHC) protein: blocks loss of MyoHC; also recorded: block
MEK/ERK
  CI-CM stimulated phosphorylation of ERK: blocked
  MEK/ERK activation (pMEK, pERK) by cachexia stimuli in CI-CM: inhibited

B1: IL-10: secreted protein tested as candidate cachexia-inducing protein (protein, UniProt P22301 19-178, looked up)
Interleukin-10: SPGQGTQSENSCTHFPGNLPNMLRDLRDAFSRVKTFFQMKDQLDNLLLKESLLEDFKGYLGCQALSEMIQFYLEEVMPQAENQDPDIKAHVNSLGENLKTLRLRLRRCHRFLPCENKSKAVEQVKNAFNKLQEKGIYKAMSEFDIFINYIEAYMTMKIRN
Human muscle cells
  induction of the cachexia signature: none of them strongly induced the cachexia signature
